Measured values as given in DBAASP.
Values after ≈ are worked out from the molar mass of the structure shown.

Tests used:
Assay in all cases: ≥ marks a high value that may be exact or a test limit, other limits are often not marked, values filed in µg/mL are converted to µM
[1] = test system: Micrococcus luteus PTCC 1625
[2] = test system: Escherichia coli HP101BA 7601c
[3] = test system: Staphylococcus aureus PTCC 1431
[4] = test system: Klebsiella pneumoniae PTCC 1388
[5] = test system: Streptococcus sanguinis NY101
[6] = test system: Pseudomonas aeruginosa PAK
[7] = test system: Streptococcus mutans UA159
[8] = test system: Staphylococcus aureus
[9] = test system: Streptococcus gordonii Challis DL1
[10] = test system: Streptococcus mitis ATCC 903
[11] = test system: Cryptococcus neoformans ATCC 34881
[12] = test system: Escherichia coli ATCC 27325
[13] = test system: Pseudomonas putida ATCC 17426
[14] = test system: Bacillus subtilis ATCC 62037
[15] = test system: Saccharomyces cerevisiae ATCC 44774
[16] = test system: Serratia sp. ATCC 21074
[17] = test system: Streptococcus mutans ATCC 25175
[18] = test system: Candida albicans ATCC 10231
[19] = test system: Staphylococcus aureus ATCC 15752
[20] = test system: Micrococcus luteus ATCC 4698
[21] = test system: Staphylococcus aureus Newman
[22] = test system: Staphylococcus aureus ATCC 25923
[23] = test system: Staphylococcus aureus UAMS-1
[24] = test system: Staphylococcus aureus USA 400
[25] = test system: Staphylococcus epidermidis 1457
[26] = test system: Staphylococcus aureus USA 300
[27] = test system: Escherichia coli ATCC 25726
[28] = test system: Candida tropicalis ATCC 13803
[29] = test system: Klebsiella pneumoniae ATCC 13883
[30] = test system: Pseudomonas aeruginosa PAO1
[31] = test system: Escherichia coli ATCC 25922
[32] = test system: Staphylococcus aureus MU50
[33] = test system: Bacillus subtilis 168
[34] = test system: Candida glabrata ATCC 2001
[35] = test system: Candida albicans ATCC 90028
[36] = test system: Staphylococcus aureus USA 200
[37] = test system: Escherichia coli DH5alpha
[38] = test system: Staphylococcus aureus ATCC 6538
[39] = test system: Staphylococcus epidermidis ATCC 12228

CC(C)C[C@H](NC(=O)[C@H](C)NC(=O)[C@H](CC(N)=O)NC(=O)[C@H](CC(C)C)NC(=O)[C@@H](N)Cc1ccccc1)C(=O)N[C@@H](CCCCN)C(=O)N[C@@H](CC(N)=O)C(=O)N[C@@H](Cc1ccccc1)C(=O)N[C@@H](C)C(=O)N[C@@H](CCCCN)C(=O)N[C@H](C(=O)N[C@@H](C)C(=O)NCC(=O)N[C@@H](CCCCN)C(=O)N[C@@H](CCCN=C(N)N)C(=O)N[C@@H](CC(C)C)C(=O)N[C@@H](CCCCN)C(=O)N[C@@H](CO)C(=O)N[C@@H](CC(C)C)C(=O)N[C@@H](CC(C)C)C(=O)N[C@@H](CC(N)=O)C(=O)O)[C@@H](C)O [FLNALKNFAKTAGKRLKSLLN]
MIC [1]: 4.7 µM (≈ 11 µg/mL)
MIC [2]: 6.4 µM (≈ 15 µg/mL)
MIC [3]: 5.3 µM (≈ 12.4 µg/mL)
MIC [4]: 7.3 µM (≈ 17.1 µg/mL)

CC[C@H](C)[C@H](NC(=O)[C@H](Cc1ccccc1)NC(=O)[C@H](Cc1cnc[nH]1)NC(=O)[C@H](CCCCN)NC(=O)[C@@H](NC(=O)[C@H](Cc1ccccc1)NC(=O)[C@@H](NC(=O)[C@H](C)NC(=O)[C@H](CO)NC(=O)[C@H](Cc1ccccc1)NC(=O)[C@H](CCC(N)=O)NC(=O)[C@H](CCCCN)NC(=O)[C@H](CC(C)C)NC(=O)[C@H](CC(C)C)NC(=O)[C@H](CCCCN)NC(=O)[C@H](CC(C)C)NC(=O)[C@H](CC(C)C)NC(=O)[C@H](CCC(N)=O)NC(=O)[C@H](CCCCN)NC(=O)[C@H](CC(C)C)NC(=O)[C@H](CC(C)C)NC(=O)[C@H](CCC(N)=O)NC(=O)[C@@H](N)CC(C)C)[C@@H](C)O)[C@@H](C)CC)C(=O)N[C@@H](Cc1cnc[nH]1)C(=O)N[C@@H](CCCN=C(N)N)C(=O)N[C@@H](Cc1ccccc1)C(N)=O [LQLLKQLLKLLKQFSATFIKHFIHRF]
MIC [5]: 4.98 µM (≈ 16 µg/mL)
MIC [6]: 9.96 µM (≈ 32 µg/mL)
MIC [7]: 2.49 µM (≈ 8 µg/mL)
MIC [8]: 9.96 µM (≈ 32 µg/mL)
MIC [9]: 4.98 µM (≈ 16 µg/mL)
MIC [10]: 9.96 µM (≈ 32 µg/mL)

CC[C@H](C)[C@H](NC(=O)[C@H](CCCN=C(N)N)NC(=O)[C@H](CCC(=O)O)NC(=O)[C@@H]1CCCN1C(=O)[C@@H]1CCCN1C(=O)[C@H](Cc1ccc(O)cc1)NC(=O)[C@H](CC(C)C)NC(=O)[C@H](Cc1ccccc1)NC(=O)[C@H](CCC(N)=O)NC(=O)[C@@H]1CCCN1C(=O)CNC(=O)[C@@H](NC(=O)[C@H](Cc1ccc(O)cc1)NC(=O)[C@H](CCC(N)=O)NC(=O)[C@H](CC(N)=O)NC(=O)[C@H](CCCCN)NC(=O)[C@H](CCCN=C(N)N)NC(=O)[C@H](CCC(=O)O)NC(=O)[C@H](CO)NC(=O)[C@H](Cc1ccc(O)cc1)NC(=O)[C@@H]1CCCN1C(=O)[C@H](CCCN=C(N)N)NC(=O)[C@H](CCCCN)NC(=O)[C@H](CC(=O)O)NC(=O)[C@H](CCCCN)NC(=O)[C@H](CCC(N)=O)NC(=O)[C@@H](N)CCCN=C(N)N)[C@@H](C)O)C(=O)N1CCC[C@H]1C(=O)N1CCC[C@H]1C(=O)O [RQKDKRPYSERKNQYTGPQFLYPPERIPP]
MIC [11]: 4.46 µM (≈ 16 µg/mL)
MIC [12]: 2.23 µM (≈ 8 µg/mL)
MIC [13]: 3.34 µM (≈ 12 µg/mL)
MIC [14]: 2.23 µM (≈ 8 µg/mL)
MIC [15]: 2.23 µM (≈ 8 µg/mL)
MIC [16]: 3.34 µM (≈ 12 µg/mL)
MIC [17]: 5.57 µM (≈ 20 µg/mL)
MIC [18]: 3.34 µM (≈ 12 µg/mL)
MIC [19]: 3.34 µM (≈ 12 µg/mL)

CC[C@H](C)[C@H](NC(=O)[C@H](Cc1ccccc1)NC(=O)[C@H](Cc1cnc[nH]1)NC(=O)[C@H](CCCCN)NC(=O)[C@@H](NC(=O)[C@@H](N)Cc1ccccc1)[C@@H](C)CC)C(=O)N[C@@H](Cc1cnc[nH]1)C(=O)N[C@@H](CCCN=C(N)N)C(=O)N[C@@H](Cc1ccccc1)C(=O)N[C@@H](CO)C(=O)N[C@@H](C)C(=O)N[C@H](C(=O)N[C@@H](CC(C)C)C(=O)N[C@@H](CCC(N)=O)C(=O)N[C@@H](CC(C)C)C(=O)N[C@@H](CC(C)C)C(=O)N[C@@H](CCCCN)C(=O)N[C@@H](CCC(N)=O)C(=O)N[C@@H](CC(C)C)C(=O)N[C@@H](CC(C)C)C(=O)N[C@@H](CCCCN)C(=O)N[C@@H](CC(C)C)C(=O)N[C@@H](CC(C)C)C(=O)N[C@@H](CCCCN)C(=O)N[C@@H](CCC(N)=O)C(=O)N[C@@H](Cc1ccccc1)C(N)=O)[C@@H](C)O [FIKHFIHRFSATLQLLKQLLKLLKQF]
MIC [5]: 4.98 µM (≈ 16 µg/mL)
MIC [6]: 9.96 µM (≈ 32 µg/mL)
MIC [7]: 4.98 µM (≈ 16 µg/mL)
MIC [8]: 19.5 µM (≈ 62.5 µg/mL)
MIC [9]: 2.49 µM (≈ 8 µg/mL)
MIC [10]: 9.96 µM (≈ 32 µg/mL)

CC[C@H](C)[C@@H]1NC(=O)[C@H](CO)NC(=O)[C@H](CCCCN)NC(=O)[C@@H](N)CSSC[C@@H](C(=O)NCC(=O)O)NC(=O)[C@H](CCCN=C(N)N)NC(=O)CNC(=O)[C@@H]2CCCN2C1=O [CKSIPGRCG]
MIC [20]: ≥ 75 µM

CC[C@H](C)[C@H](N)C(=O)N1CCC[C@H]1C(=O)N1CCC[C@H]1C(=O)N[C@@H](Cc1ccccc1)C(=O)N[C@H](C(=O)N[C@@H](CCCCN)C(=O)N[C@@H](CCCCN)C(=O)N[C@H](C(=O)N[C@@H](CC(C)C)C(=O)N[C@H](C(=O)N[C@H](C(=O)N[C@H](C(=O)N[C@@H](Cc1ccccc1)C(N)=O)C(C)C)[C@@H](C)O)[C@@H](C)O)C(C)C)[C@@H](C)CC [IPPFIKKVLTTVF]
MIC [21]: 25 µM (≈ 37.5 µg/mL)
MIC [22]: 50 µM (≈ 75.1 µg/mL)
MIC [23]: 25 µM (≈ 37.5 µg/mL)
MIC [24]: 25 µM (≈ 37.5 µg/mL)
MIC [25]: 12.5 µM (≈ 18.8 µg/mL)
MIC [26]: 25 µM (≈ 37.5 µg/mL)
MIC [27]: 25 µM (≈ 37.5 µg/mL)
MIC [28]: 4.38 µM (≈ 6.58 µg/mL)
MIC [29]: ≥ 50 µM
MIC [30]: > 50 µM
MIC [31]: 12.5 µM (≈ 18.8 µg/mL)
MIC [18]: 25 µM (≈ 37.5 µg/mL)
MIC [32]: 25 µM (≈ 37.5 µg/mL)
MIC [33]: ≥ 50 µM
MIC [34]: 12.5 µM (≈ 18.8 µg/mL)
MIC [35]: 25 µM (≈ 37.5 µg/mL)
MIC [36]: 25 µM (≈ 37.5 µg/mL)

CC(C)C[C@H](NC(=O)[C@H](CC(C)C)NC(=O)[C@H](CCCCN)NC(=O)[C@H](CCCCN)NC(=O)[C@H](CC(C)C)NC(=O)[C@H](C)NC(=O)[C@H](CCCCN)NC(=O)[C@H](Cc1ccccc1)NC(=O)[C@H](CC(C)C)NC(=O)[C@H](C)NC(=O)[C@H](CCCCN)NC(=O)[C@H](CC(C)C)NC(=O)[C@@H](N)Cc1ccccc1)C(=O)O [FLKALFKALKKLL]
MIC [20]: 1.96 µM (≈ 3 µg/mL)
MIC [37]: 7.83 µM (≈ 12 µg/mL)
MIC [38]: 5.87 µM (≈ 9 µg/mL)
MIC [39]: 6.52 µM (≈ 10 µg/mL)
